Patent US8940795B2, “Plant disease controlling composition and method for controlling plant disease” (Sumitomo Chemical Company, Limited, priority 2010, dated 2015)

Test system: gray mold fungus (Botrytis cinerea)
Assay: Cucumber leaf disk preventive test against gray mold fungus
Format: in vivo
Settings: 15° C., four days
Method: True leaf of cucumber is punched out with cork borer to 13 mm in diameter to prepare a leaf disk. In 24 well microwell plate that is dispensed with 1 ml 0.8% water agar, the leaf disk is placed such that the upper side of the leaf is in an upward direction. Thereto is added 20 micro liter a testing solution prepared by mixing a dimethyl sulfoxide solution of the present compound (racemate) and a dimethyl sulfoxide solution of flutolanil to a predetermined concentration to treat the leaf disk. After confirming that the testing medical solution is dried, conidium of gray mold fungus (Botrytis cinerea) is suspended into potato dextrose broth (DIFCO) in a density of about 10^5 conidium/mL and is then subjected to a spray inoculation. After leaving to stand the leaf disk in a growth chamber set up at 15° C. for four days, an onset area on the leaf is measured and then calculated an onset area rate (hereinafter, referred to as an onset area rate of treated group). The same operation is carried out with 20 micro liter water instead of 20 micro liter a testing medicine solution to calculate an onset area rate (hereinafter, referred to an onset area rate of non-treated group). A preventive value is calculated from the above onset area rate of treated group and the onset area rate of non-treated group by the following equation: Preventive value(%)=100×(A−B)/A wherein […] The same operations as described in Test Example 1 are carried out with zoxamide instead of flutolanil, so as to calculate a preventive value. Also for comparison, the same operations as described in Test Example 1 are carried out with the exception that the testing medicine solution is substituted with a predetermined concentration of each dimethyl sulfoxide solution of the present compound (racemate) or zoxamide, so as to calculate respective preventive values. For comparison, the same operations as described in Test Example 1 are carried out with the exception that the testing medicine solution is substituted with a predetermined concentration of a dimethyl sulfoxide solution of flutolanil, so as to calculate a preventive value.

Compound | preventive value (%) (flutolanil alone 0.5 ppm) | preventive value (%) (flutolanil alone 5.0 ppm) | preventive value (%) (zoxamide alone 0.5 ppm) | preventive value (%) (zoxamide alone 5.0 ppm)
CC(C)Oc1cccc(NC(=O)c2ccccc2C(F)(F)F)c1 [flutolanil] | 10 | 15 | – | –
CCC(C)(NC(=O)c1cc(Cl)c(C)c(Cl)c1)C(=O)CCl (stereo not shown) [zoxamide] | – | – | 10 | 15
